From US7790762B2, “Compounds and methods for thiol-containing compound efflux and cancer treatment” (National Jewish Health, priority 2002, dated 2010)
Like-named read-outs stand apart in the source and are kept apart here.

Tests used:
Type in all cases: cell-based, human
A549 cells [1] = experiment: Intracellular GSH levels by HPLC-EC in A549 cells; conditions: for activity at 25 µM / activity at 50 µM / activity at 75 µM: Homo sapiens; for activity at 75 µM: A549, 75 μM
Method: (§1) Cell lines and culture conditions. Human lung epithelial cancer (A549), human leukemia HL-60 and human prostate (PC-3) tumor cells were purchased from ATCC (Manassas, Va.). A549 and PC-3 cells were grown in Ham's F12 medium (F12) and Kaighn's modification of Ham's F12 medium (F12K) with 2 mM L-glutamine (ATCC), respectively, supplemented with 10% fetal bovine serum (FBS) and 5% pen/strep (10,000 unit, Cellgro). HL-60 cells were grown in Iscove's modified Dulbecco's medium with 4 mM L-glutamine (ATCC) supplemented with 20% FBS and 5% pen/strep. Cell were grown in T-75 flask at 37° C. and 5% CO2 air atmosphere and in 24-well plates for GSH levels and LDH release measurements.
(§2) Intracellular levels of GSH. Intracellular GSH levels can be determined by HPLC-EC. Cultured cells from 24-well plates were washed once with 1 ml of PBS and then re-suspended in 0.5 ml of distilled water with 40 μM of digitonin (2 mM stock solution in DMSO) for 30 min at room temperature. Then, 50 μl of 10% meta-phosphoric acid were added (1% final concentration), the samples were sonicated for 2 min, centrifuged at 20,000 g for 10 min, and 0.2 ml of supernatant placed in vials for HPLC analysis. […] The flow rate was […]. The retention time for GSH in these conditions was 7.5 min. The HPLC instrument was from ESA, Inc. (Chelmsford, Mass.), equipped with an autosampler (model 540) and a Coul array detector (model 5600A). The potential applied was +0.75 V vs. H/Pd electrode, and the injection volume 5 μl.

PC-3 cells [2] = experiment: Cytotoxicity as LDH release in PC-3 cells; conditions: for LDH release, % of control at 50 µM: Homo sapiens, read-out: LDH rel. % con.
Method: as §1
(§3) Assessment of cytotoxicity. In one exemplary method, membrane integrity of A549, HL-60 and PC-3 cells was used as an index of drug-induced cytotoxicity, and was assessed by monitoring the release of cytosolic lactate dehydrogenase (LDH). LDH activity was measured in the culture medium and cell lysates (50 mM HEPES, Triton X-100 0.5%, pH 7) using a plate reader format as previously described (41). Briefly, 5 μl of cell culture supernatant and lysates were incubated with 0.24 mM NADH in a Tris/NaCl pH 7.2 buffer in 96-well plates for 5 min at 25° C. The reaction was started by the addition of 9.8 mM pyruvate and the consumption of NADH followed at 340 nm for 5 min at 30° C. Percent LDH release was calculated by the following: (supernatant LDH/supernatant LDH+lysate LDH)×100.

PC-3 cells [3] = experiment: Intracellular GSH levels by HPLC-EC in PC-3 cells; conditions: for Int. GSH % con. / activity at 25 µM: PC-3, 25 μM; for Int. GSH % con. / activity at 50 µM / activity at 25 µM: 24 hours treatment; for activity at 50 µM / activity at 25 µM: Homo sapiens, read-out: Int. GSH % con.; for activity at 50 µM: PC-3, 50 μM
Method: as §1, §2

HL-60 cells [4] = experiment: Cytotoxicity as LDH release in HL-60 cells; conditions: for LDH rel. % con. / LDH release, % of control at 50 µM / LDH release, % of control at 25 µM: 48 hours treatment; for LDH release, % of control at 50 µM / LDH release, % of control at 25 µM: Homo sapiens, read-out: LDH rel. % con.; for toxicity: HL-60 cells
Method: as §1, §3

A549 cells [5] = experiment: Cytotoxicity as LDH release in A549 cells; conditions: 48 hours treatment
Method: as §1, §3

HL-60 cells [6] = experiment: Intracellular GSH levels by HPLC-EC in HL-60 cells; conditions: for Int. GSH % con. / activity at 75 µM / activity at 25 µM / activity at 50 µM: 24 hours treatment; for activity at 75 µM / activity at 25 µM / activity at 50 µM: Homo sapiens, read-out: Int. GSH % con.; for activity at 75 µM: HL-60, 75 μM; for effect on intracellular GSH (words): HL-60 cells
Method: as §1, §2

[7] = A549, 25 μM, 2 h, read-out: Intracellular GSH levels, % compared to control
[8] = PC-3, 50 μM, 48 hours treatment
[9] = A549, 50 μM, 24 hours treatment, read-out: Int. GSH % con.
[10] = Homo sapiens, A549, 75 μM, read-out: LDH rel. % con.
[11] = 24 hours treatment, read-out: Int. GSH % con.
[12] = A549, 25 μM, 24 hours treatment, read-out: Int. GSH % con.

COc1ccc2c(=O)cc(-c3ccccc3)oc2c1 [7-MF, 7-Methoxyflavone] was tested, and the “effect on intracellular GSH (words)” value (A549 cells [1]; A549 cells) was “less effective than 7-HF but more effective than flavone” and the activity at 25 µM (A549 cells [1]; [7]) was 78.2 ± 2.4%.

With O=c1cc(-c2ccc(O)cc2)oc2cc(O)cc(O)c12 [Apigenin] the “LDH rel. % con.” value (PC-3 cells [2]; [8]) was 142 % con, the “effect on curcumin-induced toxicity, LDH release” value (PC-3 cells [2]; PC-3 cells, 48 hours (FIG. 20C)) was “potentiated the curcumin's toxicity, but unexpectedly less than chrysin” and the “Int. GSH % con.” value (PC-3 cells [3]) was 32 % con. The “effect on intracellular GSH (words)” value (PC-3 cells [3]; PC-3 cells) was “one active flavone-like structure for inducing GSH depletion”, the “Intracellular GSH levels, % compared to control” value (A549 cells [1]; A549, 25 μM, 4 h) was 17.1 ± 1.4% and the “Int. GSH % con.” value (A549 cells [1]; A549, 25 μM, 24 hours treatment) was 9 % con. The “LDH rel. % con.” value (HL-60 cells [4]; HL-60, 50 μM) was 259 % con, the “LDH rel. % con.” value (A549 cells [5]; A549, 75 μM) was 284 % con and the “Int. GSH % con.” value (HL-60 cells [6]; HL-60, 50 μM) was 66 % con.

For O=c1cc(-c2ccccc2)oc2cc(O)c(O)c(O)c12 [Baicalein, 5,6,7 trihydroxyflavone], the LDH release, % of control at 50 µM (PC-3 cells [2]; [8]) was 94%, the activity at 50 µM (PC-3 cells [3]) was 100% and the activity at 50 µM (A549 cells [1]; [9]) was 41%. It also gave an LDH release, % of control at 50 µM (HL-60 cells [4]; HL-60, 50 μM) of 129%, an LDH release, % of control at 75 µM (A549 cells [5]; [10]) of 206% and an activity at 75 µM (HL-60 cells [6]) of 82%.

COc1cc(/C=C/C(=O)CC(=O)/C=C/c2ccc(O)c(OC)c2)ccc1O [Curcumin, reference compound] gave an LDH release, % of control at 50 µM (PC-3 cells [2]; [8]) of 180%, an activity at 25 µM (PC-3 cells [3]) of 170% and an activity at 50 µM (A549 cells [1]; [9]) of 53%. For the same compound, the LDH release, % of control at 25 µM (HL-60 cells [4]; HL-60, 25 μM) was 180%, the LDH release, % of control at 75 µM (A549 cells [5]; [10]) was 140% and the activity at 25 µM (HL-60 cells [6]; HL-60, 25 μM) was 221%.

Work on Oc1cc(O)c2cc(O)c(-c3ccc(O)c(O)c3)[o+]c2c1 [Cyanidin] yielded an LDH release, % of control at 50 µM (PC-3 cells [2]; [8]) of 93%, an activity at 50 µM (PC-3 cells [3]) of 120% and an activity at 75 µM (A549 cells [1]; [11]) of 82%. It also gave an LDH release, % of control at 50 µM (HL-60 cells [4]; HL-60, 50 μM) of 110%, an LDH release, % of control at 75 µM (A549 cells [5]; [10]) of 110% and an activity at 75 µM (HL-60 cells [6]) of 95%.

Oc1cc(O)c2c(c1)O[C@H](c1ccc(O)c(O)c1)[C@H](O)C2 [Epicatechin, (−)-epicatechin] showed an LDH release, % of control at 50 µM (PC-3 cells [2]; [8]) of 88%, an activity at 50 µM (PC-3 cells [3]) of 115% and an activity at 75 µM (A549 cells [1]; [11]) of 47%. The LDH release, % of control at 50 µM (HL-60 cells [4]; HL-60, 50 μM) was 76%, the LDH release, % of control at 75 µM (A549 cells [5]; [10]) was 104% and the activity at 75 µM (HL-60 cells [6]) was 90%.

Compound COc1cc([C@@H]2c3cc4c(cc3[C@@H](O[C@@H]3O[C@@H]5CO[C@@H](C)O[C@H]5[C@H](O)[C@H]3O)[C@H]3COC(=O)[C@H]23)OCO4)cc(OC)c1O [Etoposide, reference compound] has an LDH release, % of control at 50 µM (PC-3 cells [2]; [8]) of 124%, an activity at 25 µM (PC-3 cells [3]) of 83% and an activity at 50 µM (A549 cells [1]; [9]) of 55%. For the same compound, the “toxicity” value (HL-60 cells [4]) was “toxic”, the LDH release, % of control at 25 µM (HL-60 cells [4]; HL-60, 25 μM) was 290% and the LDH release, % of control at 50 µM (A549 cells [5]; Homo sapiens, A549, 50 μM, read-out: LDH rel. % con.) was 294%. The “effect on intracellular GSH (words)” value (HL-60 cells [6]) was “relatively effective for depleting GSH” and the activity at 25 µM (HL-60 cells [6]; HL-60, 25 μM) was 7%.

O=c1c(O)c(-c2ccc(O)c(O)c2)oc2cc(O)ccc12 [Fisetin] showed an LDH release, % of control at 50 µM (PC-3 cells [2]; [8]) of 109%, an activity at 50 µM (PC-3 cells [3]) of 100% and an activity at 50 µM (A549 cells [1]; [9]) of 50%. For the same compound, the “toxicity” value (HL-60 cells [4]) was “toxic”, the LDH release, % of control at 50 µM (HL-60 cells [4]; HL-60, 50 μM) was 166% and the LDH release, % of control at 75 µM (A549 cells [5]; [10]) was 267%. The “effect on intracellular GSH (words)” value (HL-60 cells [6]) was “relatively effective for depleting GSH” and the activity at 50 µM (HL-60 cells [6]; HL-60, 50 μM) was 16%.

Compound O=c1cc(-c2ccccc2)oc2ccccc12 [Flavone, flavone] has an LDH release, % of control at 50 µM (PC-3 cells [2]; [8]) of 91%, an activity at 25 µM (PC-3 cells [3]) of 84% and an activity at 25 µM (A549 cells [1]; [7]) of 89.7 ± 0.6%. The activity at 25 µM (A549 cells [1]; A549, 25 μM, 4 h, read-out: Intracellular GSH levels, % compared to control) was 29.7 ± 4.8%, the activity at 25 µM (A549 cells [1]; [12]) was under 5% and the LDH release, % of control at 50 µM (HL-60 cells [4]; HL-60, 50 μM) was 116%. For the same compound, the LDH release, % of control at 75 µM (A549 cells [5]; [10]) was 164% and the activity at 50 µM (HL-60 cells [6]; HL-60, 50 μM) was 85%.

For O=c1c(O)c(-c2ccccc2)oc2cc(O)cc(O)c12 [Galangin, 3,5,7 trihydroxyflavone], the LDH release, % of control at 50 µM (PC-3 cells [2]; [8]) was 140%, the activity at 25 µM (PC-3 cells [3]) was 68% and the activity at 25 µM (A549 cells [1]; [7]) was 62.9 ± 0.4%. The activity at 25 µM (A549 cells [1]; [12]) was under 5%, the LDH release, % of control at 50 µM (HL-60 cells [4]; HL-60, 50 μM) was 114% and the LDH release, % of control at 75 µM (A549 cells [5]; [10]) was 155%. The activity at 50 µM (HL-60 cells [6]; HL-60, 50 μM) was 69%.

In the case of C[C@]12CC[C@@H]3c4ccc(O)cc4CC[C@H]3[C@@H]1CC[C@@H]2O [β-Estradiol, β-estradiol, reference compound], the “Int. GSH % con.” value (PC-3 cells [3]) is reported as 98 % con, the “Int. GSH % con.” value (A549 cells [1]; A549, 50 μM, 24 hours treatment) is reported as 41 % con and the “LDH rel. % con.” value (HL-60 cells [4]; HL-60, 25 μM) is reported as 120 % con. The “Int. GSH % con.” value (HL-60 cells [6]; HL-60, 25 μM) was 70 % con.
